Laboratory results as given in patent publication US8143217B2, “Use of DPP-IV inhibitor to reduce hypoglycemic events” (Novartis AG, priority 2005, dated 2012).

Tested on: patients with type 2 diabetes treated with insulin
Assay: Clinical study: 24 weeks LAF237 50 mg bid vs placebo as add-on to insulin, hypoglycemic episodes
Format: in vivo, human
Settings: for Number of severe hypoglycemic episodes (Panel C): severe = requiring assistance of another party; for Number of severe hypoglycemic events compared with placebo group: P=0.032, chi-square test of two Poisson rates
Protocol: A multicenter, double-blind, randomized, parallel-group study to compare the effect of 24 weeks treatment with LAF237 50 mg bid to placebo as add-on therapy in patients with type 2 diabetes treated with insulin.
In addition to treatment with insulin, patients are assigned to double-blind treatment of LAF237 50 mg bid or placebo in a ratio of 1:1.
This is a multicenter, randomized, double-blind, placebo-controlled study. Patients with type 2 diabetes (HbA1c 7.5-11%) who have been treated for at least 3 months with insulin is eligible for participation in the trial. Eligible patients are randomized equally to LAF237 50 mg bid or placebo in addition to continuing their insulin therapy. The insulin dose can be adjusted downward as clinically indicated but upward adjustments should not exceed 25% of the baseline insulin dose.
Each patient attends one screening visit (Week-4) where the inclusion/exclusion criteria is assessed. Eligible patients are then be randomized at Visit 2 (Baseline, Day 1) and complete 5 further visits over a period of 24 weeks of treatment with LAF237 or placebo added to insulin.
Patients were instructed to perform self-monitored blood glucose measurements (SMBG) any time hypoglycemia was suspected and prior to breakfast at least 3 times per week. […] Severe hypoglycemia was defined as any episode requiring the assistance of another party (with low plasma glucose value<3.1 mmol/L unless the severity of the event precluded glucose determination).

[1] = 24-week treatment, vildagliptin 50 mg bid added to insulin (n = 144)

**Q.** Which “Total number of hypoglycemic episodes reported (Panel B)” value [1] does the source give for `N#C[C@@H]1CCCN1C(=O)CNC12CC3CC(CC(O)(C3)C1)C2` [vildagliptin, (S)-1-[(3-hydroxy-1-adamantyl)amino]acetyl-2-cyano-pyrrolidine] here?
**A.** The value was 113 episodes.

**Q.** And the “Number of patients reporting any hypoglycemic episode (Panel A)” value (24-week treatment, vildagliptin 50 mg bid added to insulin (n = 144), hypoglycemia = symptoms confirmed by SMBG<3.1 mmol/L)?
**A.** Its value is 33 patients.

**Q.** What about the “Number of severe hypoglycemic episodes (Panel C)” value (“Number … (Panel C)” below) [1] of the same compound?
**A.** The value was “none”.

**Q.** What about the “Number … (Panel C)” value (24-week treatment, vildagliptin 50 mg bid added to insulin (n = 144), listed as LAF237) of the same compound?
**A.** Its value is “did not show any severe hypoglycaemic episodes”.

**Q.** What about the “Number … (Panel C)” value (24-week treatment, vildagliptin 50 mg bid added to insulin (n = 144), listed as Vildagliptin + Insulin) of the same compound?
**A.** The value was 0 episodes.

**Q.** What about the “Effect against insulin-induced hypoglycemia” value (added to insulin in type 2 diabetes patients) of the same compound?
**A.** Its value is “protective effect”.

**Q.** And the “Number of hypoglycemic events compared with placebo group” value (vildagliptin 50 mg bid vs placebo, both added to insulin, 24 weeks, P<0.001, chi-square test of two Poisson rates)?
**A.** The value was “statistically significantly lower”.

**Q.** And the “Number of severe hypoglycemic events compared with placebo group” value (vildagliptin 50 mg bid vs placebo, both added to insulin, 24 weeks)?
**A.** The value was “statistically significantly lower”.

**Q.** And the “Number of severe hypoglycemic events compared with placebo group” value (vildagliptin 50 mg bid vs placebo, both added to insulin, 24 weeks, listed as LAF237)?
**A.** The value was “fewer severe hypoglycaemic episodes”.
